Consider 15 compounds from ChEMBL document CHEMBL5532635, “The role of natural anti-parasitic guided development of synthetic drugs for leishmaniasis” (Eur J Med Chem, 2023).

For data set [1], the system named is Leishmania major. Description: Antileishmanial activity against Leishmania major promastigotes incubated for 24 hrs measured by alamar blue staining based fluorescence analysis. The class given is functional, organism-based. In general terms: The colour change of resazurin is a common sign of viable cells or microbes.
Data set [2] has as its system Leishmania infantum. Description: Antileishmanial activity against Leishmania infantum MCAN/ES/89/IPZ229/1/89 axenic amastigotes assessed as reduction in parasite viability treated for 24 hrs by PI staining based flow cytometry. The class given is functional, organism-based. As to conditions: MCAN/ES/89/IPZ229/1/89, 24 h. (In general: Flow cytometry measures light scatter and fluorescence of single cells or particles in a stream.)

Data set [3] relates to Leishmania donovani. Description: Antileishmanial activity against Leishmania donovani intracellular amastigotes assessed as parasite growth inhibition. The class given is functional, organism-based.
In data set [4] the test system is Leishmania amazonensis. Put plainly: Antileishmanial activity against Leishmania amazonensis MHOM/BR/71973/M2269 promastigotes assessed as reduction in parasite growth incubated for 24 hrs by PI staining based flow cytometry analysis. As to conditions: MHOM/BR/71973/M2269, 24 h. The class given is functional, organism-based.
Data set [5] deals with Leishmania amazonensis. Description: Antileishmanial activity against Leishmania amazonensis amastigotes assessed as reduction in parasite growth measured after 24 hrs by MTT assay. The class given is functional, organism-based.
Data set [6] relates to Leishmania infantum. Description: Antileishmanial activity against Leishmania infantum MCAN/ES/89/IPZ229/1/89 promastigote measured after 72 hrs by MTT assay. The data set is classed as functional, organism-based. The note with it: MCAN/ES/89/IPZ229/1/89, 72 h. A general note: Formazan colour is commonly taken as a measure of viable cells.
Data set [7] has as its system Leishmania infantum. Description: Antileishmanial activity against Leishmania infantum MHOM/BR/1972/BH46 promastigotes assessed as reduction in parasite growth incubated for 24 hrs by PI staining based flow cytometry analysis. The data set is classed as functional, organism-based. The note with it: MHOM/BR/1972/BH46, 24 h.
For data set [8], the system named is Leishmania amazonensis. Description: Antileishmanial activity against Leishmania amazonensis promastigotes assessed as inhibition of parasite growth measured after 72 hrs by alamar blue assay. The data set is classed as functional, organism-based.
In data set [9] the test system is Leishmania major. Put plainly: Antileishmanial activity against Leishmania major IR-173 promastigotes assessed as inhibition of parasite viability incubated for 72 hrs by resazurin/alamar blue fluorometric assay. The data set is classed as functional.
In data set [10] the target is Arginase (Leishmania amazonensis, UniProt O96394). Description: Inhibition of Leishmania amazonensis Arginase expressed in Escherichia coli BL21 (DE3).
Data set [11] can be described thus: Cytotoxicity against mouse RAW264.7 cells assessed as reduction in cell viability measured after 24 hrs by CCK8 assay. The data set is classed as toxicity, cell-based.
Data set [12] deals with Leishmania donovani. Description: Antileishmanial activity against Leishmania donovani promastigotes assessed as reduction in parasite growth incubated for 72 hrs by MTT assay. The data set is classed as functional, organism-based.
The nature of data set [13]: Antileishmanial activity against Leishmania donovani MHOM/IN/95/9515 promastigotes assessed as inhibition of parasite viability incubated for 72 hrs by resazurin/alamar blue fluorometric assay. The data set is classed as functional.
The subject of data set [14] is Leishmania donovani. Description: Antileishmanial activity against Leishmania donovani promastigotes at 50 uM. The class given is functional.
In data set [15] the test system is Leishmania donovani. Description: Antileishmanial activity against Leishmania donovani promastigotes at 25 uM. The class given is functional.
In data set [16] the test system is Leishmania donovani. Put plainly: Immunosuppressive activity in Leishmania donovani assessed as inhibition of PGE2 production. The data set is classed as functional, organism-based.
For data set [17], the system named is Leishmania infantum. Put plainly: Antileishmanial activity against Leishmania infantum MHOM/MA/67/ITMAP263 promastigotes expressing red-shifted luciferase gene infected in mouse J774 cells incubated for 24 hrs by microplate luminometer analysis. The note with it: MHOM/MA/67/ITMAP263, J774, 24 h. The data set is classed as functional, organism-based.
For data set [18], the system named is Leishmania infantum. Description: Antileishmanial activity against Leishmania infantum MON-1 promastigotes assessed as reduction in parasite viability measured after 48 hrs by MTT assay. The note with it: MON-1, 48 h. The class given is functional, organism-based.
The test system of data set [19] is Leishmania amazonensis. Put plainly: Antileishmanial activity against Leishmania amazonensis promastigotes assessed as inhibition of parasite growth at 10 uM relative to control. The class given is functional. On the set-up: scale not given: the % may be the effect or the level left.
Data set [20] concerns Leishmania amazonensis. Put plainly: Antileishmanial activity against Leishmania amazonensis promastigotes assessed as reduction in parasite viability measured after 48 hrs by alamar blue analysis. The data set is classed as functional, organism-based.
Data set [21] has as its system Leishmania major. Put plainly: Antileishmanial activity against Leishmania major promastigote assessed as inhibition of parasite growth. The data set is classed as functional, organism-based.
Data set [22] deals with Leishmania donovani. Put plainly: Antileishmanial activity against Leishmania donovani amastigotes. The class given is functional, organism-based.
The test system of data set [23] is Leishmania donovani. Put plainly: Antileishmanial activity against Leishmania donovani promastigotes. The class given is functional, organism-based.
A short description of data set [24]: Inhibition of recombinant Leishmania mexicana Trypanothione reductase.

Each structure is given as a SMILES string. Values after ≈ are worked out from the molar mass of the structure shown. Bounds are passed on as bounds.

Take `CCOC(=O)C1=C(C)NC(C)=C(C(=O)OCC)C1c1cccc(Cl)c1`: in data set [1], the EC50 came out at 15.5 µM.
With `Cn1c(=O)c2c(c3ccccc31)OC(C)(C)[C@H]1CC[C@@](C)(O)[C@H](Cl)[C@H]21`, the IC50 in data set [2] was greater than 6.25 µM.
Turning to `CCCCCCCCNCc1ccc2c(c1)C(=O)CC(C)(C)O2`, the IC50 in data set [3] was 24.6 µM.
Turning to `CCCc1cc(OC)c2oc(=O)c(C(=O)c3ccc([N+](=O)[O-])cc3)cc2c1`, the 50% inhibitory concentration (IC50) was found to be 26.7 µM in [4]; 18 µM in data set [5]; 6.8 µM in [6]; 3.53 µM in data set [7]; 18 µM in [8].
In the case of `O=C(Cn1cnc2ccccc2c1=O)N1CCC2(CC1)OCCO2`, in data set [9], the Activity worked out at 35%.
Compound `O=C(CCc1ccc(O)c(O)c1)O[C@H](Cc1ccc(O)cc1)C(=O)O` registered an IC50 in data set [10] of 5.5 µM.
For the compound `O=C(/C=C/c1ccc(F)cc1)c1ccccc1Cl`, the CC50 at 24 h in data set [11] worked out at 479 µM.
Regarding `CCOC(=O)C1=CNC(=S)NC1c1ccc(C)cc1` (centres undefined), the IC50 in data set [12] was 28.3 µg/mL (≈ 102 µM).
Consider `O=C(Cn1cnc2cc(Cl)ccc2c1=O)n1cnc2cc(Cl)ccc2c1=O`, for which the Activity in [13] was determined as 29%.
As for `COc1ccc2c(c1)O/C(=C/c1cc(O)cc(O)c1)C2=O`, the Activity amounted to 108% in [14] and 105% in [15]. Also, the IC50 in data set [16] was 5.9 µM.
On to `COc1cc(OC)c(C(=O)/C=C/c2cccc(C)c2)c([N+](=O)[O-])c1`, for which the EC50 in data set [17] was determined as 0.78 µM. In addition, the IC50 in [18] turned out to be 74.1 µM.
Consider `CC[C@H]1C[C@@H]2CN3CCc4c([nH]c5ccccc45)[C@](C(=O)OC)(C2)[C@H]13` [CORONARIDINE], for which, in data set [19], the Activity is given as 97%. Further, the IC50 in [20] was determined as 12.5 µg/mL (≈ 36.9 µM).
On to `COc1c2ccoc2nc2c(OC)cccc12` [GAMMA-FAGARINE], for which the IC50 in data set [21] is greater than 74.2 µM.
As for `O=C1/C(=C/c2ccc(O)c(O)c2)Oc2cc(O)ccc21` [SULFURETIN], the EC50 stood at 0.33 µM in data set [22] and 4.58 µM in [23].
For the compound `C[C@H]1[C@H](C)CC[C@]2(C(=O)O)CC[C@]3(C)C(=CC[C@@H]4[C@@]5(C)CC[C@H](O)C(C)(C)[C@@H]5CC[C@]43C)[C@H]12` [URSOLIC ACID], the IC50 in [24] came out at 7.03 µM.

Broadly, the EC50 is the concentration that produces a half-maximal response. Usually IC50 stands for the concentration that gives 50% inhibition. For orientation: CC50 means the concentration giving 50% cytotoxicity.
